Source: patent US6737055B2, “Isolated cathepsin L type cysteine proteases and reducing intercorneocyte cohesion/promoting desquamation therewith” (Societe l'Oreal S.A., priority 1997, dated 2004)
Where a SMILES comes first, the peptide text is derived from it. [ ]: non-standard residue; d: D form. The star is where a group is joined. Sta = CC(C)C[C@H](N)[C@@H](O)CC(=O)O; Isovaleryl = CC(C)CC(=O)*

Experiments:
[1] = system: cysteine-dependent protease of the G4 peak; experiment: Protease activity of G4 peak fractions (Enzcheck kit, BODIPYfl-caséine fluorometry) with or without known protease inhibitors, 5 mM cysteine; type: biochemical, human
Protocol: The protease activities contained in the fractions obtained by transporting over the Superdex G75 HR10/30® exclusion column were assayed by fluorometry using the Enzcheck® kit (Molecular Probes).
This kit is a rapid and simple method of measuring the protease activities, with no precipitation or separation phase and is therefore suitable for rapid screening of the protease activities of the different fractions. This protocol employs, as substrate therefor, BODIPYfl-caséine® which becomes fluorescent after enzymatic digestion. The fluorescence thus liberated is directly proportional to the protease activity contained in the sample. The fluorescence was measured on the LS50B spectrofluorometer, Perkin Elmer, with an excitation wavelength of 485 nm (slit of 2.5 nm), an emission wavelength of 535 nm (slit of 8 nm) and an integration time of 1 second per well.
The assays were carried out in the presence or absence of cysteine at a final concentration of 5 mM so as to detect possible cysteine protease activities.
In order to better characterize the cysteine-dependent protease isolated above, tests of inhibition by known protease inhibitors were carried out. The measurements were carried out in an identical manner to the preceding measurements in the presence of cysteine at a final concentration of 5 mM and in the presence or absence (control) of the inhibitor considered.

cathepsins L = settings: in the presence of urea; cited from earlier work
cathepsins D = settings: in the presence of urea; cited from earlier work
L cathepsins = L cathepsins (Homo sapiens, UniProt P07711); settings: cited from earlier work
Sequence of L cathepsins (P07711 114-333): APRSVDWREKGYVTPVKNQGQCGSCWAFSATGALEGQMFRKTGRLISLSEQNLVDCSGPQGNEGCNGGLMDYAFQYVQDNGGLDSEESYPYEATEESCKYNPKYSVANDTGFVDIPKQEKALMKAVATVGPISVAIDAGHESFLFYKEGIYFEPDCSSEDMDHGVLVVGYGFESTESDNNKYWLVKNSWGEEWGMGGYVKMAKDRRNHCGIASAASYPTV

Molecule: CC(C)CC(=O)N[C@H](C(=O)N[C@H](C(=O)N[C@@H](CC(C)C)[C@@H](O)CC(=O)N[C@@H](C)C(=O)N[C@@H](CC(C)C)[C@@H](O)CC(=O)O)C(C)C)C(C)C [Pepstatin] (Isovaleryl-VV[Sta]A[Sta]-OH)
- action on G4 protease activity ([1]; pepstatin at 1 μM, 5 mM cysteine): without action

Molecule: CCCNC(=O)[C@H]1O[C@@H]1C(=O)N[C@H](C(=O)N1CCC[C@H]1C(=O)O)[C@@H](C)CC [Inhibitor CA 074, CA 074]
- effect on the activity profile of the cysteine-dependent protease of peak G4 ([1]; 1 μM, 5 mM cysteine): practically, did not affect the activity profile

Molecule: CC(=O)N[C@@H](CC(C)C)C(=O)N[C@@H](CC(C)C)C(=O)N[C@H](C=O)CCCNC(=N)N [Leupeptin]
- reduction of the protease activity of G4 ([1]; leupeptin at 1 μM, in the presence of cysteine): about 41%

Molecule: CC(C)C[C@H](NC(=O)[C@@H](NC(=O)N[C@@H](Cc1ccccc1)C(=O)O)[C@@H]1CCN=C(N)N1)C(=O)N[C@H](C=O)Cc1ccccc1 [chymostatin, Chymostatin]
- inhibition of the cysteine-dependent protease of peak G4 ([1]; chymostatin at 2.5 μM, 5 mM cysteine): more than 50%

Molecule: CC(C)C[C@H](NC(=O)[C@H]1O[C@@H]1C(=O)O)C(=O)NCCCCN=C(N)N [E 64]
- inhibition of the activity of the cysteine-dependent protease of the G4 peak ([1]; E 64 at 1.4 μM, 5 mM cysteine, acetate buffer pH 5.0): about 71%

Molecule: NC(N)=O [urea, Urea]
- factor by which cathepsin L activity is multiplied (cathepsins L): 2.5
- factor by which cathepsin D activity is multiplied (cathepsins D): 6

Molecule: Z(phe-arg 2R110)
- sensitivity to the action of the L cathepsins relative to the B cathepsins (L cathepsins): 850 times
